Assay results published in patent US11179412B2, “Methods of treating conditions involving elevated inflammatory response” (University of Pittsburgh—Of the Commonwealth System of …, priority 2017, dated 2021).
“Also recorded” adds a separate entry of the source.

Key:
[1] = system: THP1 cells; assay: Cell viability assay (CCK-8), THP1; assay type: cell-based, human; conditions: 3′3′-cGAMP 10 μg/ml, ALK inhibitor 10 μM, 16 hours
Procedure: (§1) Cells were seeded into 96-well plates and incubated with the indicated treatments. Subsequently, 100 μl fresh medium was added to cells containing 10 μl Cell Counting Kit-8 (CCK-8) solutions (Dojindo Laboratories) and incubated for 1 h (37° C., 5% CO2). Absorbance at 450 nm was measured using a microplate reader (Tecan).

[2] = system: STING signaling (TBK1, IRF3, p65 phosphorylation) in J774A.1 cells; assay: Western blot of STING pathway protein phosphorylation, J774A.1; assay type: cell-based, mouse; conditions: 10 μM
Procedure: (§2) For immunoblotting, cells were lysed in Cell Lysis Buffer (#9803, Cell Signaling Technology) with protease inhibitor cocktail (Promega), phosphatase inhibitor cocktail (Sigma), and 1 mM Na3VO4 (70). Cleared lysates were resolved by SDS-PAGE (#3450124, Bio-Rad) and then transferred onto PVDF membranes (#1704273, Bio-Rad). The membranes were blocked with Tris-buffered saline Tween 20 (TBST) containing 5% skim milk for 1 h at room temperature and then incubated with the indicated primary antibodies (1:1000-1:5000) overnight at 4° C. After being washed with TBST, the membranes were incubated with an HRP-linked anti-mouse IgG secondary antibody (#7076, Cell Signaling Technology) or HRP-linked anti-rabbit IgG secondary antibody (#7074, Cell Signaling Technology) for 1 h at room temperature. The membranes were washed three times in TBST and then visualized and analyzed with a ChemiDoc Touch Imaging System (#1708370, Bio-Rad). The intensities of bands were analyzed with Image Lab software.

[3] = molecular target: T1, interaction between ALK and EGFR (Mus musculus, UniProt P97793+Q01279); assay: IP analysis of the interaction between ALK and EGFR, iBMDMs; assay type: cell-based; conditions: 3′3′-cGAMP or c-di-AMP 10 μg/ml, 16 hours, 10 μM
T1 construct: endogenous in cells; host or cells: iBMDMs
T1 sequence (P97793 19-1621): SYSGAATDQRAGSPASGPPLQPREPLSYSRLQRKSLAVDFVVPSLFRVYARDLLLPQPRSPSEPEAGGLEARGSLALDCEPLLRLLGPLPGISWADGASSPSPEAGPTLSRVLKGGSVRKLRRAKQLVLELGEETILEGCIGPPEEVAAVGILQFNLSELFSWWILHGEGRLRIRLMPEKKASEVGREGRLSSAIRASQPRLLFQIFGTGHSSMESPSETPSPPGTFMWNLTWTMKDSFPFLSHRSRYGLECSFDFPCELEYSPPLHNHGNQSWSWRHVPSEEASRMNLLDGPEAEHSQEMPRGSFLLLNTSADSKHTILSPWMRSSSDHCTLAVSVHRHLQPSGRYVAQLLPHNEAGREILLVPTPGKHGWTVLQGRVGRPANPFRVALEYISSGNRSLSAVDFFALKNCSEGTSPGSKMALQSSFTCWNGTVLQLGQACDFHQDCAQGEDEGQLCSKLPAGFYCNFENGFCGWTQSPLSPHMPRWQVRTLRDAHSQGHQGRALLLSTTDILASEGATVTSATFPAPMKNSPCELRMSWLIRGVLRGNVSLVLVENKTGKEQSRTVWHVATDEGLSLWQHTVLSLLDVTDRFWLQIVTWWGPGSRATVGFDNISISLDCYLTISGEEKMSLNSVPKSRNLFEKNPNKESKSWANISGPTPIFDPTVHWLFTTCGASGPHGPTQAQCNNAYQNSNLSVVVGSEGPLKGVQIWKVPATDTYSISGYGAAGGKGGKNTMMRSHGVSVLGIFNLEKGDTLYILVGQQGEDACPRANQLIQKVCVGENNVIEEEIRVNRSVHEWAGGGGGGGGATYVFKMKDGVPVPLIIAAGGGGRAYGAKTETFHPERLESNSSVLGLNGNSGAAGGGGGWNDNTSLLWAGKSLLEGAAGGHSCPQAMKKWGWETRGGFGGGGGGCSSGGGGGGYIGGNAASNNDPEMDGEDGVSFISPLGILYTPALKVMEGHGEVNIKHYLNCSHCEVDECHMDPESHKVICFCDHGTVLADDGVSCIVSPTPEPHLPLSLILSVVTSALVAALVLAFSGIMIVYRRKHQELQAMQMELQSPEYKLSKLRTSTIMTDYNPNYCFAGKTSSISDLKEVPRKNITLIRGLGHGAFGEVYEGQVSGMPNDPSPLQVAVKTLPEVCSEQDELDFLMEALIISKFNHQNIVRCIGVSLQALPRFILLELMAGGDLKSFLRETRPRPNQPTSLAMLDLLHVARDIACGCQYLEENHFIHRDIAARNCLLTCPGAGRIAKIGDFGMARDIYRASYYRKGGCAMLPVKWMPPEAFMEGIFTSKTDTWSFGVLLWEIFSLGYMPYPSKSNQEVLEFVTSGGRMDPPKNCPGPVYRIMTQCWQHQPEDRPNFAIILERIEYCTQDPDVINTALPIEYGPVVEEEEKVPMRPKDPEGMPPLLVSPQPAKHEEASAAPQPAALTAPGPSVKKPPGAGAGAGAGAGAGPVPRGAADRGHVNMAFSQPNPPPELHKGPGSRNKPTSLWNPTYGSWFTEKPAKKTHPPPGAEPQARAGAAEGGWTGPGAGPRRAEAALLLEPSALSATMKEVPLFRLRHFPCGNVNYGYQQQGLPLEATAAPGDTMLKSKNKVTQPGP
T1 sequence (Q01279 25-1210): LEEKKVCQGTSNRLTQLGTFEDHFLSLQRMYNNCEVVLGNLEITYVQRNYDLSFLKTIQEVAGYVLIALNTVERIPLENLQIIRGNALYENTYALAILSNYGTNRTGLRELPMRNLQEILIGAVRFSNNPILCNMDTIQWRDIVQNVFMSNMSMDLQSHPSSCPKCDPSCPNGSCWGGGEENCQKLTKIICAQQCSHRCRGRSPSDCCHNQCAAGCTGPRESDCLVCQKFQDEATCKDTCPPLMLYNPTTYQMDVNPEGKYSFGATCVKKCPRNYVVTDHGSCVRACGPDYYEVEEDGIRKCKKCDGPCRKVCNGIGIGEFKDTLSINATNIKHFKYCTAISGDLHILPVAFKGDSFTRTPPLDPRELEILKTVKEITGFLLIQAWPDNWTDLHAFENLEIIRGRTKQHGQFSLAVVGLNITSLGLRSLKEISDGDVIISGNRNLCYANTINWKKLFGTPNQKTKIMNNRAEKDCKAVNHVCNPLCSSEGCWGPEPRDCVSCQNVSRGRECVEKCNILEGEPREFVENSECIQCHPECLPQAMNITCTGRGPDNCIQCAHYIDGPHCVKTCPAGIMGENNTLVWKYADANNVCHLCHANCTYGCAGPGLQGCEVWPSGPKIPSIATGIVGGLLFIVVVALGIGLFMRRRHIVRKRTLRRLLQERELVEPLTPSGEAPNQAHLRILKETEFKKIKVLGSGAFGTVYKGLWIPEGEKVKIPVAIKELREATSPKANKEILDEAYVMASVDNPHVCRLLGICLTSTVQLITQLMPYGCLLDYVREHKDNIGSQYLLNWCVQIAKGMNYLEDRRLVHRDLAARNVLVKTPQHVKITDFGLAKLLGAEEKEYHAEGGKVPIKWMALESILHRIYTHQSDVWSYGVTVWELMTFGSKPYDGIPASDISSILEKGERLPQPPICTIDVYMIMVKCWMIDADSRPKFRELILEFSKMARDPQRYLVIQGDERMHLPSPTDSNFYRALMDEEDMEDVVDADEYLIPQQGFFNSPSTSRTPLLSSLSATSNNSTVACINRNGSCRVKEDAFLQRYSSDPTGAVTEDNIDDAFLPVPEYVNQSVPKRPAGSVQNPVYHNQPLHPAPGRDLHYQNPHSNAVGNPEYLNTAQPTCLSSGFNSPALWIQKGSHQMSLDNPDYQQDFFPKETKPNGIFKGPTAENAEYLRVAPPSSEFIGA
Procedure: Concentrations of proteins in the supernatant were determined by bicinchoninic acid assay. […] Following incubation, agarose/sepharose beads were washed extensively with PBS and proteins were eluted by boiling in 2× sodium dodecyl sulfate (SDS) sample buffer before SDS-PAGE electrophoresis.

[4] = system: IFNβ mRNA in THP1 cells; assay: IFNβ mRNA Q-PCR, THP1 cells; assay type: cell-based, human; conditions: STING ligands 10 μg/ml, inhibitor 10 μM, 16 hours
Procedure: (§3) Total RNA was extracted using QIAGEN RNeasy Plus Kit according to the manufacturer's instructions. First-strand cDNA was synthesized from 1 μg of RNA using the iScript cDNA Synthesis kit (#1708890, Bio-Rad). Briefly, 20 μl reactions were prepared by combining 4 μl iScript Select reaction mix, 2 μl gene-specific enhancer solution, 1 μl reverse transcriptase, 1 μl gene-specific assay pool (20×, 2 μM), and 12 μl RNA diluted in RNase-free water. Quantitative real-time PCR was carried out using synthesized cDNA, primers, and SsoFast EvaGreen Supermix (#172-5204, Bio-Rad). The expression of target genes was calculated using the ddCt method relative to the expression of a house-keeping gene, β-actin. Data shown are the relative quantity (RQ), with RQ of the control cells set to one.

[5] = system: STING activation (IFNβ release) in THP1 cells; assay: IFNβ release ELISA, THP1 cells; assay type: cell-based, human; conditions: STING ligands 10 μg/ml, inhibitor 10 μM, 16 hours
Procedure: (§4) Macrophages or monocytes were treated with 3′3′-cGAMP (10 μg/ml, Invitrogen) for 16 hours in the absence or presence of one compound (10 μM) from the Target-selective Inhibitory Library (#L3500, Selleck Chemicals). Commercially available enzyme-linked immunosorbent assay (ELISA) kits were used to measure the concentrations of mouse IFNβ (Thermo Fisher Scientific) or human IFNβ (Thermo Fisher Scientific) in culture medium according to the manufacturer's instructions.

[6] = system: receptor tyrosine kinase phosphorylation in iBMDMs; assay: Proteome Profiler phospho-RTK array, iBMDMs; assay type: cell-based, mouse; conditions: 3′3′-cGAMP or c-di-AMP 10 μg/ml, 16 hours, LDK378 10 μM
Source text: The Proteome Profiler Mouse XL Cytokine Array Kit (#ARY028) and the Proteome Profiler Mouse Phospho-RTK Array Kit (#ARY014) are membrane-based sandwich immunoassays. Captured antibodies spotted in duplicate on nitrocellulose membranes bind to specific target proteins present in the sample (Step 1). Captured proteins are detected with biotinylated detection antibodies (Step 2) and then visualized using chemiluminescent detection reagents (Step 3). The signal produced is proportional to the amount of analyte bound. The intensities of bands were analyzed with Quick Spots Image Analysis Software (Western Vision Software, http://www.wvision.com/QuickSpots.html).

[7] = system: STING signaling (TBK1, IRF3, p65, ALK, EGFR, AKT phosphorylation) in RAW264.7 cells; assay: Western blot of STING pathway protein phosphorylation, RAW264.7; assay type: cell-based, mouse; conditions: 10 μM
Procedure: as §2

[8] = system: STING activation (IFNβ release) in pPBMCs; assay: IFNβ release ELISA, primary peripheral blood mononuclear cells (pPBMCs); assay type: cell-based; conditions: human pPBMCs; 3′3′-cGAMP 10 μg/ml, 16 hours; compound 10 μM
Procedure: as §4

[9] = system: IFNβ mRNA in iBMDMs; assay: IFNβ mRNA Q-PCR, iBMDMs; assay type: cell-based, mouse; conditions: STING ligands 10 μg/ml, inhibitor 10 μM, 16 hours
Procedure: as §3

[10] = system: STING signaling (TBK1, IRF3, p65, ALK, EGFR, AKT phosphorylation) in THP1 cells; assay: Western blot of STING pathway protein phosphorylation, THP1; assay type: cell-based, human; conditions: 10 μM
Procedure: as §2

[11] = system: RAW264.7 cells; assay: Cell viability assay (CCK-8), RAW264.7; assay type: cell-based, mouse; conditions: 3′3′-cGAMP 10 μg/ml, ALK inhibitor 10 μM, 16 hours
Procedure: as §1

[12] = system: STING activation (IFNβ release) in iBMDMs; assay: IFNβ release ELISA after STING ligand (or LPS) stimulation, iBMDMs; assay type: cell-based, mouse
Method in brief: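 IFNβ released into the medium was quantified by ELISA (mouse or human kit) after iBMDM stimulation with the canonical STING agonist 3′3′-cGAMP or with LPS.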

[13] = system: iBMDMs; assay: Cell viability assay (CCK-8), iBMDMs; assay type: cell-based, mouse; conditions: 3′3′-cGAMP 10 μg/ml, ALK inhibitor 10 μM, 16 hours
Procedure: as §1

[14] = system: IFNβ mRNA in J774A.1 cells; assay: IFNβ mRNA Q-PCR, J774A.1 cells; assay type: cell-based, mouse; conditions: STING ligands 10 μg/ml, inhibitor 10 μM, 16 hours
Procedure: as §3

[15] = 3′3′-cGAMP 10 μg/ml, three to 16 hours
[16] = 3′3′-cGAMP or c-di-AMP 10 μg/ml, 16 hours

Cc1cc(Nc2ncc(Cl)c(Nc3ccccc3S(=O)(=O)C(C)C)n2)c(OC(C)C)cc1C1CCNCC1 [LDK378, 5-chloro-N^2-(2-isopropoxy-5-methyl-4-(piperidin-4-yl)phenyl)-N^4-[2-(propane-2-sulfonyl)-phenyl]-pyrimidine-2,4-diamine]
cell viability [1]: did not affect cell viability | 3′3′-cGAMP-induced p-TBK1 [2, 15]: time-dependently reduced | 3′3′-cGAMP-, c-di-AMP-, and DMXAA-induced p-IRF3 and p-p65 ([2]; ligand 10 μg/ml): inhibited | c-di-AMP- or DMXAA-induced p-TBK1 ([2]; ligand 10 μg/ml, 16 hours): inhibited | interaction between ALK and EGFR [3]: reduced | STING ligand-induced IFNβ mRNA expression [4]: attenuation | IFNβ release induced by STING ligands [5]: inhibited | STING ligand-induced upregulated phosphorylation of various RTKs, including EGFR [6]: impaired | 3′3′-cGAMP-induced p-TBK1 [7, 15]: time-dependently reduced | STING ligand-induced phosphorylation of TBK1, IRF3, and p65 [7, 16]: diminished | 3′3′-cGAMP-, c-di-AMP-, and DMXAA-induced p-IRF3 and p-p65 ([7]; ligand 10 μg/ml): inhibited | c-di-AMP- or DMXAA-induced p-TBK1 ([7]; ligand 10 μg/ml, 16 hours): inhibited | 3′3′-cGAMP- or c-di-AMP-induced phosphorylation of ALK, EGFR, and AKT ([7]; ligand 10 μg/ml, 16 hours): attenuated | 3′3′-cGAMP-induced IFNβ release [8]: confirmed their inhibitory properties | STING ligand-induced IFNβ mRNA expression [9]: attenuation | 3′3′-cGAMP-induced p-TBK1 [10, 15]: time-dependently reduced | STING ligand-induced phosphorylation of TBK1, IRF3, and p65 [10, 16]: diminished | 3′3′-cGAMP-, c-di-AMP-, and DMXAA-induced p-IRF3 and p-p65 ([10]; ligand 10 μg/ml): inhibited | c-di-AMP- or DMXAA-induced p-TBK1 ([10]; ligand 10 μg/ml, 16 hours): inhibited | 3′3′-cGAMP- or c-di-AMP-induced phosphorylation of ALK, EGFR, and AKT ([10]; ligand 10 μg/ml, 16 hours): attenuated | cell viability [11]: did not affect cell viability | fold increase in IFN-β release [12]: 0.08 fold | 3′3′-cGAMP-induced IFNβ release ([12]; iBMDMs, 3′3′-cGAMP 10 μg/ml, 16 hours, compound 10 μM): blocked; also recorded: diminished | LPS-induced IFNβ release ([12]; iBMDMs, LPS 1 μg/ml, LDK378 10 μM, three hours): inhibited | IFNβ release induced by STING ligands ([12]; iBMDMs, STING ligands 10 μg/ml, inhibitor 10 μM, 16 hours): inhibited | cell viability [13]: did not affect cell viability | STING ligand-induced IFNβ mRNA expression [14]: attenuation
